Reference: US20230414602A1, “PHARMACEUTICAL COMPOSITION COMPRISING INSOLUBLE CAMPTOTHECIN COMPOUND-CONTAINING NANOPARTICLE FOR TREATMENT OF CANCER AND COMBINATION THERAPY THEREOF” (SNBioScience Inc., priority 2020, published 2023)
Where a name gives a salt, the structure may show the parent alone.

Columns and labels:
[1] = Body weight of A549 xenograft mice (Example 4); format: in vivo, BALB/c nu/nu male mice
Method: (§1) Tumor volume and body weight were measured twice a week (intervals of 3 or 4 days) from the time of grouping to the end of the test, and a tumor growth curve was constructed from the start of drug administration to the end of the test.

[2] = Body weight of MDA-MB-231 xenograft mice (Example 4); format: in vivo, BALB/c nu/nu male mice
Method: as §1

[3] = system: MDA-MB-231; assay: Breast cancer MDA-MB-231 xenograft, tumor volume and TGI (Example 4); format: in vivo, BALB/c nu/nu male mice; details: docetaxel 5->15 mg/kg, SNB-101 20 mg/kg (as SN-38), i.v. Q1W x 6
Method: (§2) The thawed cells were cultured for one week or longer, with passages every two or three days. The cells were assayed for viability (trypan blue) and infection with bacteria and yeasts (cell images) and mycoplasma (MycoAlert Mycoplasma detection kit).
as §1
(§3) As of the end of the experiment, relative tumor growth inhibition (TGI) to the vehicle was calculated using the following equation.
Tumor growth inhibition (TGI) (%)={1−(ΔT/ΔC)}×100 Equation 2

[4] = system: A549; assay: Lung cancer A549 xenograft, tumor volume and TGI (Example 4); format: in vivo, BALB/c nu/nu male mice; details: docetaxel 5->10 mg/kg, SNB-101 20 mg/kg (as SN-38), i.v. Q1W x 5
Method: as §2, §1, §3
Tumor growth inhibition (TGI)(%)={1−(ΔT/ΔC)}×100 Equation 2

[5] = Body weight of AsPC-1 xenograft mice (Example 2); format: in vivo, BALB/c nu/nu male mice
[6] = system: AsPC-1 cells; assay: AsPC-1 pancreatic cancer xenograft, tumor volume and tumor weight (Example 2); details: excised day 22; nab-paclitaxel 5, irinotecan HCl 50, SNB-101 low dose 10/15.9 mg/kg/day
Description: As a pancreatic cancer cell line for a pancreatic cancer xenograft model, AsPC-1 was used. AsPC-1 cells are aggressive cells and are known to have resistance to gemcitabine.

[7] = system: HT-29 colorectal cancer cells; assay: HT-29 colorectal cancer xenograft, tumor volume (Example 5); format: in vivo, BALB/c nude mice
Description: A total of 150 BALB/c nude mice (5-week-old males) were obtained and acclimatized for about one week before transplantation of HT-29 colorectal cancer cells into the subcutaneous area of the right hip. […] after transplantation, 50 mice were selected on the basis of the tumor volume and classified into five groups of 10.
[…] after transplantation of the HT-29 colorectal cancer cells, mice were selected based on the tumor volume and randomly divided into 5 groups (10 mice/group). The drug administration group was set as in Table 13, below.
An autopsy was performed on day 28. A 5% dextrose solution used as a vehicle for the control was equally administered at a dose of 10 mL/kg.
Test results are expressed as mean±S.D. in Table 14, below.

CC(=O)O[C@@]12CO[C@@H]1C[C@H](O)[C@@]1(C)C(=O)[C@H](O)C3=C(C)[C@@H](OC(=O)[C@H](O)[C@@H](NC(=O)OC(C)(C)C)c4ccccc4)C[C@@](O)([C@@H](OC(=O)c4ccccc4)[C@H]21)C3(C)C [Docetaxel, docetaxel]
Body weight at the start of drug administration (day 0) [1]: 17.93 g | Body weight at the start of drug administration (day 0) ([2]; day 0, MDA-MB-231 xenograft mice): 19.63 g | Body weight at the end of the test (day 35) ([2]; day 35, docetaxel 5->15 mg/kg, SNB-101 20 mg/kg (as SN-38), i.v. Q1W x 6): 20.25 g | average tumor volume ([3]; end of experiment (35 days after drug administration)): 1,228.93 mm3 | TGI (%) ([3]; relative to vehicle, end of experiment (day 35)): 27.6% | average tumor volume ([4]; end of experiment (37 days after drug administration)): 402.70 mm3 | TGI (%) ([4]; relative to vehicle, end of experiment (day 37)): 50.0%

CCc1c2c(nc3ccc(OC(=O)N4CCC(N5CCCCC5)CC4)cc13)-c1cc3c(c(=O)n1C2)COC(=O)[C@]3(O)CC [Irinotecan HCl, irinotecan hydrochloride]
Body weight, Day 0 ([5]; Day 0, i.v., nab-paclitaxel 5, irinotecan HCl 50, SNB-101 low dose 10/15.9 mg/kg/day (SN-38/irinotecan HCl)): 21.3 ± 0.9 g | Body weight, Day 3 ([5]; Day 3, i.v., nab-paclitaxel 5, irinotecan HCl 50, SNB-101 low dose 10/15.9 mg/kg/day): 22.1 ± 1.1 g | Body weight, Day 7 ([5]; Day 7, i.v., nab-paclitaxel 5, irinotecan HCl 50, SNB-101 low dose 10/15.9 mg/kg/day): 22.8 ± 1.1 g | Body weight, Day 11 ([5]; Day 11, i.v., nab-paclitaxel 5, irinotecan HCl 50, SNB-101 low dose 10/15.9 mg/kg/day): 22.9 ± 1.2 g | Body weight, Day 14 ([5]; Day 14, i.v., nab-paclitaxel 5, irinotecan HCl 50, SNB-101 low dose 10/15.9 mg/kg/day): 23.4 ± 1.2 g | Body weight, Day 17 ([5]; Day 17, i.v., nab-paclitaxel 5, irinotecan HCl 50, SNB-101 low dose 10/15.9 mg/kg/day): 22.9 ± 1.2 g | Body weight, Day 21 ([5]; Day 21, i.v., nab-paclitaxel 5, irinotecan HCl 50, SNB-101 low dose 10/15.9 mg/kg/day): 22.6 ± 1.2 g | Body weight, Day 22 ([5]; Day 22 (autopsy), i.v., nab-paclitaxel 5, irinotecan HCl 50, SNB-101 low dose 10/15.9 mg/kg/day): 21.7 ± 1.3 g | weight loss rate compared to G1 (vehicle group) ([5]; day 22, nab-paclitaxel 5, irinotecan HCl 50, SNB-101 low dose 10/15.9 mg/kg/day): 10.0% | Tumor weight [6]: 0.489 ± 0.101 g

Bevacizumab: monoclonal antibody and target anticancer drug (trade name Avastin)
Tumor volume (mm^3) Test start A (day 1) ([7]; day 1, SNB-101 20/31.8 mg/kg venous, bevacizumab 5 mg/kg peritoneal, irinotecan 50 mg/kg venous, days 1, 4, 7): 96.67 ± 14.79 mm^3 | Tumor volume (mm^3) Test end B (day 28) ([7]; day 28, SNB-101 20/31.8 mg/kg venous, bevacizumab 5 mg/kg peritoneal, irinotecan 50 mg/kg venous, days 1, 4, 7): 709.38 ± 266.87 mm^3 | Tumor Volume Change (mm^3) [B − A] ([7]; day 28 minus day 1, SNB-101 20/31.8, bevacizumab 5, irinotecan 50 mg/kg): 612.71 ± 259.64 mm^3
